Data published in patent publication US12246010B2, “Formulations of tegavivint and related compounds” (Iterion Therapeutics, Inc., priority 2018, dated 2025).
Converted amounts (≈) assume the structure as drawn. “And” between values parts separate entries of the source, which are not always exact repeats. Equal entries are not always repeated. Where two headings read alike, the source gives them in different places.

Columns and labels:
[1] = Tegavivint solubility in water and organic solvents; assay type: physicochemical
Method: In organic solvents, tegavivint has solubilities as shown: DMSO (334 μg/mL), ethanol (260 μg/mL), methanol (299 μg/mL), acetone (1 mcg/mL), dichloromethane:ethanol (1:4) (1 mg/mL).

[2] = Lung concentration after nebulized whole body exposure of mice; assay type: in vivo, bcat-Ex3 mice; settings: for concentration at 5 day: male, bcat-Ex3, mouse, lung, inhaled
Method: The purpose of this experiment was to test nebulized delivery of nanosuspensions.
Tegavivint particles suspended in Poloxamer 188/sorbitol at a concentration of 25 mg/mL were used.
These formulations were applied to the mice in the form of aerosols, through the method of whole body exposure. The mice were placed inside a plastic box. This box was sealed and connected by one of its sides to the outlet of the nebulizer device, and on the other side to a system of closed water. The whole procedure was carried out inside the fume hood of the animal room.
For the first experiment, the nebulizer kit of SATER LABS was used. This device uses the jet system. The device was primed with 5 ml of the drug, i.e. 125 mg of tegavivint (BC2059), for each group of 5 mice, and then the device was connected to the power source for nebulization. The energy was supplied by a DeVilbiss compressor model 646, which allows 5-7 pounds of pressure, and a flow of 6-8 liters per minute. For the second experiment, the device used was the Altera, ultrasonic nebulizer.
For the two experiments, 10 male bcat-Ex3 mice were used for each set. These mice were separated into 2 groups of 5 mice each. The first group received the drug daily, for 5 consecutive days. The second group received the drug only once (the fifth day). On day 5 all mice were sacrificed, lung harvested, and samples were stored at −30 degrees, in two labeled nylon bags, each containing the 5 samples from each group.

red blood cells = assay: Hemolysis of red blood cells; assay type: cell-based; settings: in the nanoparticle form or when dissolved in DMSO
Source text: It was hypothesized that the tween/ethanol/PEG/Vitamin E/Intralipid solvent-based excipients and probable drug precipitation were responsible for the infusion reactions and not tegavivint itself.

[3] = system: bleomycin-induced idiopathic pulmonary fibrosis (IPF); assay: Bleomycin-induced IPF mouse model: lung mechanics (FlexiVent compliance); assay type: in vivo, C57BL/6 male mice
Method: The purpose of this experiment was to investigate tegavivint nanosuspension in a mouse model of bleomycin-induced idiopathic pulmonary fibrosis (IPF). Test articles were as follows:
Murine model of pulmonary fibrosis was induced by intratracheally (IT) injected bleomycin (APP Pharmaceuticals, Schaumburg, IL). One dose of 0.025 U bleomycin dissolved in 50 microliters of Saline 0.9%, or PBS as control was administered to each animal on day 0.
Tegavivint nanosuspension was applied to Group 3 in the form of aerosols, through the method of whole body exposure. The mice were placed inside a plastic box. This box was sealed and connected by one of its sides to the outlet of the nebulizer device, and on the other side to a system of closed water. The whole procedure was carried out inside the fume hood of the animal room. In each treatment session, 5 ml of 25 mg/ml Tegavivint (125 mg) was nebulized over 15 min to each group of 4-5 mice in the chamber. To increase exposure of the mice to the aerosol, Tegavivint that precipitated in the aerosol chamber was collected with a syringe and re-nebulized a second and a third time. Mice were nebulized twice a day between day 5 and day 21 after administration of bleomycin. Group 1 and 2 received nebulized vehicle 5 ml in the same manner. […]

[4] = Aerosol concentration of nebulized formulations in rodent nose-only exposure chamber; assay type: physicochemical
Source text: A series of BC-2059 (tegavivint) formulations were aerosolized using vibrating mesh and compressed air nebulizers to determine the most efficient method of aerosol generation. The aerosols were characterized for aerosol concentration and particle size distribution in a rodent nose-only exposure chamber. Each formulation had different variables adjusted to assess impact on aerosol performance. These included particle size reduction of the API, excipient profile and nebulizer utilized.
Test article BC-2059 was suspended in 0.1% Tween 80 in purified water at a concentration of 15 mg/mL. The suspension was sonicated using a Covaris S220x Ultrasonicator (Covaris, Boston MA) and then mixed on a vortex for one minute. Sonication and mixing by vortex was repeated a total of 15 times.
The remaining bulk BC-2059 powder was ground in a Planetary Ball Mill (Retsch, Germany) for 10 minutes at 150 RPMs utilizing a 12 mL ball mill jar and three metal balls. The milled BC-2059 powder was suspended in 0.1% Tween 80 in purified water at a concentration of 15 mg/mL. The suspension was sonicated using the procedure outlined above.
The remaining bulk BC-2059 powder was ground in a Planetary Ball Mill (Retsch, Germany) for 60 minutes at 300 RPMs utilizing a 12 mL ball mill jar and three metal balls. The milled BC-2059 powder was suspended in 0.1% Tween 80 in purified water and 10% PEG 400 in purified water at a concentration of 15 mg/mL. The suspensions were sonicated using the procedure outlined above. An additional 15 mg/mL BC-2059 suspension using 10% ethanol in purified water was prepared. The suspension was sonicated for 10 minutes using a VWR sonicator (VWR, Radnor PA) and mixed for 4 minutes using a vortex mixer. […]
The aerosols were generated from formulations prepared with a series of surfactants with 4 separate nebulizers (Aeroneb Solo (Aerogen, Ireland), Pari LC Plus (Pari Respiratory Equipment Inc. Midlothian VA), Hospitak Up Mist, Hospitak Inc. Farmdale, NY), and Hudson Micro-Mist (Teleflex Inc. Research Triangle Park, NC) and transitioned into a 2 tier flow-past rodent exposure system.
The total concentration of aerosol in the exposure atmosphere was determined by the analysis of filter samples (GF/A 47-mm filters). Filter samples were collected at a nominal flow rate of 0.3 L/min. Filter samples collected throughout the study were analyzed gravimetrically to determine the total aerosol concentration, and submitted for HPLC analysis.
Filters with test article were extracted in 1:1 acetonitrile: methanol and analyzed by the HPLC-UV assay.

[5] = mouse lung, Nebulizer (ultrasonic eRapid, Altera), 5 daily doses on Days 1-5
[6] = Covaris and Ball Mill (60 min), 0.1% Tween 80, 15.06 mg/mL, Hospitak
[7] = Covaris and Ball Mill (60 min), 0.1% Tween 80, 15.08 mg/mL, Hudson MicroMist
[8] = Covaris and Ball Mill (60 min), 10% PEG-400, 15.08 mg/mL, Hudson MicroMist
[9] = Covaris, 0.1% Tween 80, 15.04 mg/mL, Aeroneb Solo
[10] = Sonicator and Ball Mill (60 min), 10% Ethanol, 15.00 mg/mL, Hudson MicroMist

solubility ([1]; DMSO, organic solvent or mixture, read-out: solubility in DMSO): 334 µg/mL (≈ 567 µM)
solubility ([1]; acetone, organic solvent or mixture, read-out: solubility in acetone): 1 µg/mL (≈ 1.7 µM)
solubility ([1]; dichloromethane:ethanol (1:4), organic solvent or mixture, read-out: solubility in dichloromethane:ethanol (1:4)): 1000 µg/mL (≈ 1700 µM)
solubility ([1]; ethanol, organic solvent or mixture, read-out: solubility in ethanol): 260 µg/mL (≈ 442 µM)
solubility ([1]; methanol, organic solvent or mixture, read-out: solubility in methanol): 299 µg/mL (≈ 508 µM)
solubility ([1]; water, aqueous buffer, across the pH range of 2 to 10, read-out: solubility in water): < 0.25 µg/mL
concentration at 5 day ([2]; Nebulizer (ultrasonic eRapid, Altera), 5 daily doses on Days 1-5, read-out: Lung Concentration (ng/g)): 19100 ng/g
concentration at 5 day ([2]; Nebulizer (ultrasonic eRapid, Altera), 5 daily doses on Days 1-5, read-out: Lung Concentration (ng/mL)): 4770 ng/mL
lung tissue concentration in the previous testing (assayed concentration) ([2]; mouse lung, previous nebulization testing): ~0.02 mg/g
Total Aerosol Conc. ([4]; Covaris and Ball Mill (10 min), 0.1% Tween 80, 15.58 mg/mL, Pari LC Plus): 0.123 mg/L
BC-2059 Aerosol Conc. [4, 6]: 66 µg/L
Total Aerosol Conc. [4, 6]: 0.229 mg/L
BC-2059 Aerosol Conc. [4, 7]: 86 µg/L
Total Aerosol Conc. [4, 7]: 0.093 mg/L
BC-2059 Aerosol Conc. [4, 8]: 7.2 µg/L
Total Aerosol Conc. [4, 8]: 2.58 mg/L
BC-2059 Aerosol Conc. [4, 9]: 1.3 µg/L
Total Aerosol Conc. [4, 9]: 0.247 mg/L
BC-2059 Aerosol Conc. [4, 10]: 20.2 µg/L
Total Aerosol Conc. [4, 10]: 0.027 mg/L
Structure (SMILES): C[C@@H]1C[C@H](C)CN(S(=O)(=O)c2ccc3c(c2)C(=NO)c2cc(S(=O)(=O)N4C[C@H](C)C[C@H](C)C4)ccc2C3=NO)C1 [BC2059, tegavivint]
Lung Concentration (ng/g) [2, 5]: 17200 ng/g and 18800 ng/g and 12200 ng/g and 22900 ng/g
Lung Concentration (ng/mL) [2, 5]: 4290 ng/mL and 4690 ng/mL and 3040 ng/mL and 5730 ng/mL
hemolysis of red blood cells (red blood cells): does not cause hemolysis
effect on lung compliance after bleomycin injury ([3]; Group 3, inhaled): reversed the compliance values to near those of the sham-treated controls
Compliance ([3]; Group 3: IT bleomycin Day 0, 5 ml of 25 mg/ml tegavivint aerosol BID Day 5-21, Day 21, individual animals): 0.05515 ml/cm H2O and 0.05604 ml/cm H2O and 0.06762 ml/cm H2O and 0.0543 ml/cm H2O and 0.0561 ml/cm H2O
